The structures appear in SMILES notation.

The assay deals with T1, Recombinant HCV polymerase (Hepatitis C virus genotype 1b, UniProt P26663).
T1 construct: Recombinant HCV polymerase was tested for its ability to perform primer/template-directed transcription
T1 sequence (P26663 2420-3010): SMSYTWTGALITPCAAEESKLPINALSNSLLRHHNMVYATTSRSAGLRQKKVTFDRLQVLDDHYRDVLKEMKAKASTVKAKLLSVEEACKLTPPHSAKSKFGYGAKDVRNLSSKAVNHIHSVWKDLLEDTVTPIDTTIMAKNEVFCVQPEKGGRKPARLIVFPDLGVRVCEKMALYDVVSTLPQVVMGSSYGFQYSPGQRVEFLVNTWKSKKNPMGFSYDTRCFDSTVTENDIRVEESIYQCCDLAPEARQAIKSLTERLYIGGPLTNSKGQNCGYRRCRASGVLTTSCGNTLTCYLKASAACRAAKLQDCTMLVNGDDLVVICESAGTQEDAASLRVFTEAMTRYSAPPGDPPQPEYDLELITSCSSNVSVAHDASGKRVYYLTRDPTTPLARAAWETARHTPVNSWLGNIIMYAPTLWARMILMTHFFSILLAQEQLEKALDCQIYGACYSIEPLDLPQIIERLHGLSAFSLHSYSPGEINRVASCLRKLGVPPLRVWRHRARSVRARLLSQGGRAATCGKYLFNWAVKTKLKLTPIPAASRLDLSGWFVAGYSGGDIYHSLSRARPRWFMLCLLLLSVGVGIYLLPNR
The assay can be described thus: biochemical. The following applies: inhibition of polymerase-directed transcription; 30 min at 30° C; 30 nM enzyme; cpm data in triplicate. In outline:
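Primer/template-directed RNA synthesis by 2.5 pmol HCV polymerase on poly(rC)300/biotin-dG12 with 1 μM GTP plus α-32P-GTP, in pH 7.2 Tris buffer with 10 mM MgCl2, for 30 min at 30 °C. Products were filter-captured and counted, with 1% DMSO final. IC50 was fitted from triplicate cpm; percent inhibition was reported where IC50 was impractical.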
Broadly, the IC50 is the concentration that inhibits the measured activity by half. Take `CCOc1cnc(CC)cc1CCC1(C2CCCC2)CC(O)=C(Cc2nc3ncc(C)cn3n2)C(=O)O1` (single isomer, unassigned) [A(56), 6-Cyclopentyl-6-[2-(5-ethoxy-2-ethylpyridin-4-yl)ethyl]-4-hydroxy-3-[(6-methyl[1,2,4]triazolo[1,5-a]pyrimidin-2-yl)methyl]-5,6-dihydro-2H-pyran-2-one]: the IC50 came to 4 nM.

As to `CCc1cc(CCC2(C3CCCC3)CC(O)=C(Cc3nc4nc(C)cc(C)n4n3)C(=O)O2)c2c(c1O)CCO2` (single isomer, unassigned; enantiomer 1) [A(12), Enantiomer 1 of 6-Cyclopentyl-3-[(5,7-dimethyl[1,2,4]triazolo[1,5-a]pyrimidin-2-yl)methyl]-6-[2-(5-ethyl-4-hydroxy-2,3-dihydro-1-benzofuran-7-yl)ethyl]-4-hydroxy-5,6-dihydro-2H-pyran-2-one], the IC50 is 2 nM.

`Cc1c(CC2=C(O)CC(CCc3ccc(C(C)(C)C#N)c(F)c3)(C3CCCC3)OC2=O)c(=O)n(-c2ccccc2)n1C` (stereo not shown) [A(100), 2-[4-(2-{2-Cyclopentyl-5-[(1,5-dimethyl-3-oxo-2-phenyl-2,3-dihydro-1H-pyrazol-4-yl)methyl]-4-hydroxy-6-oxo-3,6-dihydro-2H-pyran-2-yl}ethyl)-2-fluorophenyl]-2-methylpropanenitrile]: the IC50 worked out at 79 nM.

Consider `CCc1cc(CCC2(C3CCCC3)CC(O)=C(Cc3nc4nc(C)cc(C)n4n3)C(=O)O2)ccc1CNC(C)=O` (single isomer, unassigned; enantiomer 2) [A(133), Enantiomer 2 of N-[4-(2-{2-cyclopentyl-5-[(5,7-dimethyl[1,2,4]triazolo[1,5-a]pyrimidin-2-yl)methyl]-4-hydroxy-6-oxo-3,6-dihydro-2H-pyran-2-ylethyl)-2-ethylbenzyl]acetamide], for which the IC50 turned out to be 5 nM.

Consider `CCc1cc(CCC2(C3CCCC3)CC(O)=C(Cc3nc4nc(C)cc(C)n4n3)C(=O)O2)c(OC)cn1` (single isomer, unassigned) [A(39), 6-Cyclopentyl-3-[(5,7-dimethyl[1,2,4]triazolo[1,5-a]pyrimidin-2-yl)methyl]-6-[2-(2-ethyl-5-methoxypyridin-4-yl)ethyl]-4-hydroxy-5,6-dihydro-2H-pyran-2-one], for which the IC50 amounted to 6 nM.

Take `COc1cnc(C)cc1CCC1(C2CCCC2)CC(=O)CC(=O)O1` (stereo not shown) [A(7), 6-Cyclopentyl-6-[2-(5-methoxy-2-methylpyridin-4-yl)ethyl]dihydro-2H-pyran-2,4(3H)dione]: the IC50 was found to be 11300 nM.

For the compound `CCc1cc(CCC2(C3CCCC3)CC(O)=C(Cc3nc4nc(C)cc(C)n4n3)C(=O)O2)ccc1CNS(C)(=O)=O` (stereo not shown) [A(128)], the concentration for half-maximal inhibition (IC50) came to 6 nM.

Regarding `CCOc1cc(O)c(CC)cc1CCC1(C2CCCC2)CC(O)=C(Cc2nc3ncc(C)cn3n2)C(=O)O1` (single isomer, unassigned) [A(57), 6-Cyclopentyl-6-[2-(2-ethoxy-5-ethyl-4-hydroxyphenyl)ethyl]-4-hydroxy-3-[(6-methyl[1,2,4]triazolo[1,5-a]pyrimidin-2-yl)methyl]-5,6-dihydro-2H-pyran-2-one], the IC50 was found to be 3 nM.

With `CCc1cc(CCC2(C3CCCC3)CC(O)=C(Cc3nc4nc(C)cc(C)n4n3)C(=O)O2)cc(C(C)C)n1` (stereo not shown) [A(34), 6-Cyclopentyl-3-[(5,7-dimethyl[1,2,4]triazolo[1,5-a]pyrimidin-2-yl)methyl]-6-[2-(2-ethyl-6-isopropylpyridin-4-yl)ethyl]-4-hydroxy-5,6-dihydro-2H-pyran-2-one], the IC50 came out at 12 nM.

For the compound `CCc1cc(CCC2(C3CCCC3)CC(O)=C(Cc3nc4nc(C)cc(C)n4n3)C(=O)O2)ccc1CO` (racemic) [B(33), 6-Cyclopentyl-3-[(5,7-dimethyl[1,2,4]triazolo[1,5-a]pyrimidin-2-yl)methyl]-6-{2-[3-ethyl-4-(hydroxymethyl)phenyl]ethyl}-4-hydroxy-5,6-dihydro-2H-pyran-2-one], the IC50 was 28 nM.

Take `CCOc1cc(O)c(CC)cc1CCC1(C2CCCC2)CC(O)=C(Cc2nc3nc(C)cc(C)n3n2)C(=O)O1` (single isomer, unassigned) [A(30), 6-Cyclopentyl-3-[(5,7-dimethyl[1,2,4]triazolo[1,5-a]pyrimidin-2-yl)methyl]-[-6–2-(2-ethoxy-5-ethyl-4-hydroxyphenyl)ethyl]-4-hydroxy-5,6-dihydro-2H-pyran-2-one]: the IC50 is 4 nM.

As for `CCOC(=O)c1cnc2nc(CC3=C(O)CC(CCc4ccc(C(C)(C)C#N)c(Cl)c4)(C4CCCC4)OC3=O)nn2c1` (stereo not shown) [B(13), Ethyl 2-[(6-{2-[3-chloro-4-(1-cyano-1-methylethyl)phenyl]ethyl}-6-cyclopentyl-4-hydroxy-2-oxo-5,6-dihydro-2H-pyran-3-yl)methyl][1,2,4]triazolo[1,5-a]pyrimidine-6-carboxylate], the IC50 worked out at 4 nM.

For `CCc1cc(CCC2(C3CCCC3)CC(O)=C(Cc3nc4nc(C)cc(C)n4n3)C(=O)O2)ccc1C(=O)NC` (stereo not shown) [A(121), 4-(2-{2-cyclopentyl-5-[(5,7-dimethyl[1,2,4]triazolo[1,5-a]pyrimidin-2-yl)methyl]-4-hydroxy-6-oxo-3,6-dihydro-2H-pyran-2-yl}ethyl)-2-ethyl-N-methylbenzamide], the half-maximal inhibitory concentration (IC50) is 6 nM.

With `CCc1cc(CCC2(C3CCCC3)CC(O)=C(Cc3nc4nc(C)cc(C)n4n3)C(=O)O2)ccc1Cn1cncn1` (stereo not shown) [A(110), 6-Cyclopentyl-3-[(5,7-dimethyl[1,2,4]triazolo[1,5-a]pyrimidin-2-yl)methyl]-6-{2-[3-ethyl-4-(1H-1,2,4-triazol-1-ylmethyl)phenyl]ethyl}-4-hydroxy-5,6-dihydro-2H-pyran-2-one], the IC50 came out at 6 nM.

`Cc1cc(C)n2nc(CC3=C(O)CC(CCc4ccc(O)c(C(F)(F)F)c4)(C4CCCC4)OC3=O)nc2n1` (stereo not shown) [A(28), 6-Cyclopentyl-3-[(5,7-dimethyl[1,2,4]triazolo[1,5-a]pyrimidin-2-yl)methyl]-4-hydroxy-6-{2-[4-hydroxy-3-(trifluoromethyl)phenyl]ethyl}-5,6dihydro-2H-pyran-2-one]: the IC50 was 2 nM.

`Cc1cc(C)n2nc(CC3=C(O)CC(CCc4ccc([C@@H](C)NS(=O)(=O)CC(F)(F)F)cc4)(C4CCCC4)OC3=O)nc2n1` (stereo partly drawn) [A(82), N-{(1R)-1-[4(2-{2-cyclopentyl-5-[(5,7-dimethyl[1,2,4]triazolo[1,5-a]pyrimidin-2-yl)methyl]4-hydroxy-oxo-3,6dihydro-2H-pyran-2-yl}ethyl)phenyl]ethyl}-2,2,2-trifluoroethanesulfonamide]: the IC50 amounted to 65 nM.

Take `CCc1cc(CCC2(C3CCCC3)CC(O)=C(Cc3nc4nc(C)cc(C)n4n3)C(=O)O2)ccc1CNS(C)(=O)=O` (single isomer, unassigned; enantiomer 1) [A(129), Enantiomer 1 of N-[4-(2-{2-cyclopentyl-5-[(5,7-dimethyl[1,2,4]triazolo[1,5-a]pyrimidin-2-yl)methyl]-4-hydroxy-6-oxo-3,6-dihydro-2H-pyran-2-yl}ethyl)-2-ethylbenzyl]methanesulfonamide]: the IC50 is 4 nM.

With `CCc1cc(CCC2(C3CCCC3)CC(O)=C(Cc3nc4nc(C)cc(C)n4n3)C(=O)O2)ccc1OCCNC` (stereo not shown) [A(72), 6-Cyclopentyl-3-[(5,7-dimethyl[1,2,4]triazolo[1,5-a]pyrimidin-2-yl)methyl]-6-(2-{3-ethyl-4-[2-(methylamino)ethoxy]phenyl}ethyl)-4-hydroxy-5,6-dihydro-2H-pyran-2-one], the IC50 was 8 nM.

Consider `CCOc1cnc(CC)cc1CCC1(C2CCCC2)CC(O)=C(Cc2nc3nc(C)cc(C)n3n2)C(=O)O1` (single isomer, unassigned) [A(52), 6-cyclopentyl-3-[(5,7-dimethyl[1,2,4]triazolo[1,5-a]pyrimidin-2-yl)methyl]-6-[2-(5-ethoxy-2-ethylpyridin-4-yl)ethyl]-4-hydroxy-5,6-dihydro-2H-pyran-2-one], for which the IC50 was determined as 3 nM.

For the compound `Cc1cnc2nc(CC3=C(O)CC(CCc4cc(F)c(C(C)(C)C#N)cc4O)(C4CCCC4)OC3=O)nn2c1` (stereo not shown) [A(79), 2-[4-(2-{2-Cyclopentyl-4-hydroxy-5-[(6-methyl[1,2,4]triazolo[1,5-a]pyrimidin-2-yl)methyl]-6-oxo-3,6-dihydro-2H-pyran-2-yl}ethyl)-2-fluoro-5-hydroxyphenyl]-2-methylpropanenitrile], the IC50 stood at 12 nM.

On to `CCc1cc(CCC2(C3CCCC3)CC(O)=C(Cc3nc4nc(C)cc(C)n4n3)C(=O)O2)ccc1CNC(=O)OC(C)(C)C` (stereo not shown) [A(126)], for which the IC50 stood at 6 nM.

In the case of `Cc1cc(C)n2nc(CC3=C(O)CC(CCc4cc(CC(F)(F)F)nc(CC(F)(F)F)c4)(C4CCCC4)OC3=O)nc2n1` (single isomer, unassigned; enantiomer 2) [A(11), Enantiomer 2 of 6-{2-[2,6-Bis(2,2,2-trifluoroethyl)pyridin-4-yl]ethyl}-6-cyclopentyl-3-[(5,7-dimethyl[1,2,4]triazolo[1,5-a]pyrimidin-2-yl)methyl]-4-hydroxy-5,6-dihydro-2H-pyran-2-one], the IC50 is 8 nM.

As to `Cn1cc(CC2=C(O)CC(CCc3ccc(C(C)(C)C#N)c(Cl)c3)(C3CCCC3)OC2=O)cn1` (stereo not shown) [B(24), 2-[2-Chloro-4-(2-{2-cyclopentyl-4-hydroxy-5-[(1-methyl-1H-pyrazol-4-yl)methyl]-6-oxo-3,6-dihydro-2H-pyran-2-yl}ethyl)phenyl]-2-methylpropanenitrile], the IC50 amounted to 100 nM.

With `Cc1cc(CCC2(C3CCCC3)CC(O)=C(Cc3nc4nc(C)cc(C)n4n3)C(=O)O2)cc(C)n1` (stereo not shown) [A(18), 6-Cyclopentyl-6-[2-(2,6-dimethylpyridin-4-yl)ethyl]-3[(5,7-dimethyl[1,2,4]triazolo[1,5-a]pyrimidin-2-yl)methyl]-4-hydroxy-5,6dihydro-2H-pyran-2-one], the IC50 amounted to 170 nM.

For `COC(=O)c1ccc(CCC2(C3CCCC3)CC(O)=C(Cc3nc4nc(C)cc(C)n4n3)C(=O)O2)cc1F` (stereo not shown) [B(8), Methyl 4-(2-{2-cyclopentyl-5-[(5,7-dimethyl[1,2,4]triazolo[1,5-a]pyrimidin-2-yl)methyl]-4-hydroxy-6oxo-3,6-dihydro-2H-pyran-2-yl}ethyl)-2-fluorobenzoate], the IC50 is 29 nM.

The values are drawn from patent publication US7151105B2, “Inhibitors of Hepatitis C virus RNA-dependent RNA polymerase, and compositions and treatments using the same” (Agouron Pharmaceuticals, Inc., priority 2004, dated 2006).
